Consider 18 compounds from patent publication US12454529B2, “Piperazine cyclic ureas” (SIRONAX LTD., priority 2020, dated 2025).

pEC50: −log10 of the molar value.

The first test has as its system HT-29 cells. Nature of the test: HT-29 cell necrosis/necroptosis inhibition (TNF-α + SMAC mimetic + zVAD-FMK; CellTiter-Glo cell viability). The class given is cell-based. The following applies: Homo sapiens, HT-29, 20 h, read-out: EC50 (Cell activity; Necrosis/Necroptosis Inhibitory Activity, Compounds 1-142). On the procedure: Compounds 1-319 (denoted as Compound Nos. 1 through 319 in Table 3 and 4) of the disclosure were tested for binding and cellular RIP1 inhibitory activity following the experimental procedures described below.
• Cell line: HT-29 (ATCC® HTB-38™) • Culture medium: McCOY's 5A, Gibco, Cat No. 16600-082 • FBS, Gibco, Cat No. 10099-141C • Trypsin: Gibco, Cat No. 25200-056 • DMSO: Sigma, Cat No. 67-68-5, 1L • Assay plate: Corning #3903 • Compound dilution plate: Corning #3357 • Inducers: TNFα, GenScript, Cat No. Z01001-50, • SmacM, Cat. No., HY-15989, MedChemExpress (MCE) • Z_VAD FMK, TargetMol, T6013 • Cell Titer-Glo® Luminescent Cell Viability Assay Kit: Promega, Cat No. G7573 • EnVision: PerkinElmer, 2105-0010 Methods Cell Seeding
1. HT-29 cells were checked every day to make sure that they were healthy and growing as expected. They were subjected to sub-culturing when they were approximately 80% confluent.
2. The culture medium, McCOY's 5A medium (Gibco, Cat No. 16600-082) with 10% fetal bovine serum or FBS (Gibco, Cat No. 10099-141C), was pre-warmed in a 37° C. water bath for at least 30 min.
3. When the cells had reached a desired level of confluency of 80% in a T75 flask, the medium was aspirated, and the cells were washed with warm phosphate buffered saline or PBS two times.
4. 2-3 ml fresh warm trypsin (Gibco, Cat No. 25200-056) solution was added to the washed cells. The flask with the cells was transferred to a 37° C. incubator.
5. After 5 minutes, the side of the flask was tapped, and the flask was examined under a microscope for detachment of the cells to the flask. If necessary, the cells were kept in the incubator for an additional 5-10 minutes, with occasional tapping, until lifting was complete.
6. The trypsin reaction was neutralized by transferring 6-9 ml cell culture medium to sterile 15 ml conical tubes, and by centrifuging the cell culture at 300×g for 7 minutes to pellet the cells (supernatant decanted).
7. The cells were resuspended in fresh cell culture medium and the cell counting was performed using a hemocytometer.
8. 100 μl of the resuspended cell culture medium containing ˜5,000 cells were transferred into each well of the sterile 96-well cell culture plate (Corning 3903) and cultured overnight at 37° C. with 5% CO2.
Compound Titration and Treatment
1. All test compounds were dissolved in DMSO (Dimethyl sulfoxide) to create a 20 mM stock.
2. 3 μl of each compound 20 mM stock was mixed with 27 μl DMSO, and the compound solution was further diluted at a titration ratio of 1:3 (20 μl compound solution+40 μl DMSO) till the 10 points end.
3. All culture medium was removed from assay plates filled with HT-29 cell cultures. The cells were then washed with 1 PBS, and resuspended in fresh, FBS-free McCOY's 5A medium containing a cocktail of TNF-α (10 ng/ml), a SMAC mimetic compound (6 μM) and Z-VAD-fluoromethylketone or zVAD-FMK (10 μM) to stimulate the HT-29 cells to increase RIP1 kinase levels and necroptosis.
4. 0.5 μL of the diluted compound solution was added to the corresponding 96-well assay plates.
5. The assay plates were incubated for 20 hours at 37° C. with 5% CO2.
1. The CellTiter-Glo® Luminescent Cell Viability Assay was employed to detect the ATP levels of viable HT-29 cells.
2. The CellTiter-Glo® buffer and the lyophilized substrate were equilibrated to room temperature prior to use.
3. The CellTiter-Glo® substrate was resuspended with CellTiter-Glo® buffer, then mixed by gently vortexing to obtain a homogeneous solution.
4. 20 μl the enzyme/substrate mixture was transferred by multi-channel pipetting into 96-well assay plates.
5. The assay plates were placed on an orbital shaker and the contents were shaken for 3 minutes to induce cell lysis.
6. The assay plates were incubated at room temperature for 10 minutes to stabilize the luminescent signal.
7. The luminescence signals were read and recorded with EnVision.
8. The geometric mean EC50 values were calculated from 10 points response dose with duplicates. In
Background: Cellular ATP, detected with luciferase, serves as a proxy for viable cell number.
Turning to `Cn1cnn(-c2nc(N3CCN(C(=O)N4N=CC[C@H]4c4cc(F)cc(C#N)c4)CC3)ncc2F)c1=O` [Compound 140, (S)-3-fluoro-5-(1-(4-(5-fluoro-4-(4-methyl-5-oxo-4,5-dihydro-1H-1,2,4-triazol-1-yl)pyrimidin-2-yl)piperazine-1-carbonyl)-4,5-dihydro-1H-pyrazol-5-yl)benzonitrile], the pEC50 is 7.00 to 10.00.

Staying with this test, now noted: Homo sapiens; HT-29 cells, TNF-α 10 ng/ml + SMAC mimetic 6 μM + zVAD-FMK 10 μM, 20 hours; geometric mean, 10 points in duplicate; read-out: EC50 (Cell activity; Necrosis/Necroptosis Inhibitory Activity, Compounds 1-142).
On to `Cc1cc(C(N)=O)cn1-c1nc(N2CCN(C(=O)N3N=CC[C@H]3c3cc(F)cc(F)c3)CC2)ncc1F` [Compound 92, (S)-1-(2-(4-(5-(3,5-difluorophenyl)-4,5-dihydro-1H-pyrazole-1-carbonyl)piperazin-1-yl)-5-fluoropyrimidin-4-yl)-5-methyl-1H-pyrrole-3-carboxamide], for which the pEC50 was 7.00 to 10.00.
In the case of `N#Cc1cc(F)cc([C@@H]2CC=NN2C(=O)N2CCN(c3ncc(F)c(-n4cc(C#N)cn4)n3)CC2)c1` [Compound 127, (S)-1-(2-(4-(5-(3-cyano-5-fluorophenyl)-4,5-dihydro-1H-pyrazole-1-carbonyl)piperazin-1-yl)-5-fluoropyrimidin-4-yl)-1H-pyrazole-4-carbonitrile], the pEC50 is 7.00 to 10.00.
Consider `O=C(N1CCN(c2ncc(F)c(-n3cnc(Cl)n3)n2)CC1)N1N=CC[C@H]1c1cc(F)cc(F)c1` [Compound 24, (S)-(4-(4-(3-chloro-1H-1,2,4-triazol-1-yl)-5-fluoropyrimidin-2-yl)piperazin-1-yl)(5-(3,5-difluorophenyl)-4,5-dihydro-1H-pyrazol-1-yl)methanone], for which the negative logarithm of the EC50 (pEC50) is 7.00 to 10.00.
For `O=C(N1CCN(c2ncc(F)c(-c3[nH]nnc3C(F)(F)F)n2)CC1)N1N=CC[C@H]1c1cc(F)cc(F)c1` [Compound 105, (S)-(5-(3,5-difluorophenyl)-4,5-dihydro-1H-pyrazol-1-yl)(4-(5-fluoro-4-(4-(trifluoromethyl)-1H-1,2,3-triazol-5-yl)pyrimidin-2-yl)piperazinyl)methanone], the pEC50 was 7.00 to 10.00.
For the compound `Cc1cc(-c2nc(N3CCN(C(=O)N4N=CC[C@H]4c4cncc(F)c4)CC3)ncc2F)n(C)n1` [Compound 86, (S)-(4-(4-(1,3-dimethyl-1H-pyrazol-5-yl)-5-fluoropyrimidinyl)piperazin-1-yl)(5-(5-fluoropyridin-3-yl)-4,5-dihydro-1H-pyrazol-1-yl)methanone], the negative logarithm of the EC50 (pEC50) is 7.00 to 10.00.
Consider `Cc1nn(CCO)c(C)c1-c1nc(N2CCN(C(=O)N3N=CC[C@H]3c3cc(F)cc(C#N)c3)CC2)ncc1F` [Compound 124, (S)-3-fluoro-5-(1-(4-(5-fluoro-4-(1-(2-hydroxyethyl)-3,5-dimethyl-1H-pyrazol-4-yl)pyrimidin-2-yl)piperazine-1-carbonyl)-4,5-dihydro-1H-pyrazol-5-yl)benzonitrile], for which the pEC50 was 7.00 to 10.00.
In the case of `Cc1ncc(-c2nc(N3CCN(C(=O)N4N=CC[C@H]4c4cc(F)cc(C#N)c4)CC3)ncc2F)s1` [Compound 57, (S)-3-fluoro-5-(1-(4-(5-fluoro-4-(2-methylthiazol-5-yl)pyrimidin-2-yl)piperazine-1-carbonyl)-4,5-dihydro-1H-pyrazol-5-yl)benzonitrile], the negative logarithm of the EC50 (pEC50) is 7.00 to 10.00.

The test is the same for the next values; noted with them: Homo sapiens; HT-29 cells, TNF-α 10 ng/ml + SMAC mimetic 6 μM + zVAD-FMK 10 μM, 20 hours; geometric mean, 10 points in duplicate; read-out: EC50 (Cell activity; Necrosis/Necroptosis Inhibitory Activity, Compounds 143-323).
For the compound `Cc1nn(S(C)(=O)=O)c(C)c1-c1nc(N2CCN(C(=O)N3N=CC[C@H]3c3cc(F)cc(C#N)c3)CC2)ncc1F` [Compound 208, (S)-3-(1-(4-(4-(3,5-dimethyl-1-(methylsulfonyl)-1H-pyrazol-4-yl)-5-fluoropyrimidin-2-yl)piperazine-1-carbonyl)-4,5-dihydro-1H-pyrazol-5-yl)-5-fluorobenzonitrile], the pEC50 is 7.00 to 10.00.
Consider `Cc1nn(-c2ccnc(N3CCN(C(=O)N4N=CC[C@H]4c4cncc(F)c4)CC3)n2)c(C)c1Cl` [Compound 287, (S)-(4-(4-(4-chloro-3,5-dimethyl-1H-pyrazol-1-yl)pyrimidin-2-yl)piperazin-1-yl)(5-(5-fluoropyridin-3-yl)-4,5-dihydro-1H-pyrazol-1-yl)methanone], for which the pEC50 was 7.00 to 10.00.
In the case of `Cc1nnc(-c2nc(N3CCN(C(=O)N4N=CC[C@H]4c4cc(F)cc(C#N)c4)CC3)ncc2F)o1` [Compound 188, (S)-3-fluoro-5-(1-(4-(5-fluoro-4-(5-methyl-1,3,4-oxadiazol-2-yl)pyrimidin-2-yl)piperazine-1-carbonyl)-4,5-dihydro-1H-pyrazol-5-yl)benzonitrile], the pEC50 is 7.00 to 10.00.
As for `Cc1nc(C)n(-c2nc(N3CCN(C(=O)N4N=CCC4c4cnc(C)s4)CC3)ncc2F)n1` (stereo not drawn) [Compound 291, (4-(4-(3,5-dimethyl-1H-1,2,4-triazol-1-yl)-5-fluoropyrimidin-2-yl)piperazin-1-yl)(5-(2-methylthiazol-5-yl)-4,5-dihydro-1H-pyrazol-1-yl)methanone], the pEC50 is 7.00 to 10.00.
For the compound `Cc1cnc(C2CC=NN2C(=O)N2CCN(c3ncc(F)c(-c4nnc(C)s4)n3)CC2)s1` (stereo not drawn) [Compound 316], the negative-log EC50 (pEC50) is 7.00 to 10.00.
On to `Cc1nn(-c2nc(N3CCN(C(=O)N4N=CC[C@H]4c4cc(F)cc(C#N)c4)CC3)ncc2F)c(C)c1S(C)(=O)=O` [Compound 204, (S)-3-(1-(4-(4-(3,5-dimethyl-4-(methylsulfonyl)-1H-pyrazol-1-yl)-5-fluoropyrimidinyl)piperazine-1-carbonyl)-4,5-dihydro-1H-pyrazol-5-yl)-5-fluorobenzonitrile], for which the negative-log EC50 (pEC50) is 7.00 to 10.00.
Take `Cc1nn(-c2cc(N3CCN(C(=O)N4N=CC[C@H]4c4cc(F)cc(C#N)c4)CC3)ncn2)c(C)c1C#N` [Compound 279, (S)-1-(6-(4-(5-(3-cyano-5-fluorophenyl)-4,5-dihydro-1H-pyrazole-1-carbonyl)piperazin-1-yl)pyrimidin-4-yl)-3,5-dimethyl-1H-pyrazole-4-carbonitrile]: the pEC50 is 7.00 to 10.00.
In the case of `Cc1nc(C2CC=NN2C(=O)N2CCN(c3cc(-c4c(C)cnn4C)ncc3F)CC2)cs1` (stereo not drawn) [Compound 156, (4-(2-(1,4-dimethyl-1H-pyrazol-5-yl)-5-fluoropyridin-4-yl)piperazin-1-yl)(5-(2-methylthiazol-4-yl)-4,5-dihydro-1H-pyrazol-1-yl)methanone], the pEC50 was 6.00 to 7.00.
`Cc1c(N)nn(C)c1-c1nc(N2CCN(C(=O)N3N=CC[C@H]3c3cc(F)cc(C#N)c3)CC2)ncc1F` [Compound 153, (S)-3-(1-(4-(4-(3-amino-1,4-dimethyl-1H-pyrazol-5-yl)-5-fluoropyrimidin-2-yl)piperazine-1-carbonyl)-4,5-dihydro-1H-pyrazol-5-yl)-5-fluorobenzonitrile]: the pEC50 was 7.00 to 10.00.
As for `Cc1nc(C)n(-c2nc(N3C[C@@H](C)N(C(=O)N4N=CC[C@H]4c4cc(F)cc(C#N)c4)[C@@H](C)C3)ncc2F)n1` [Compound 146, 3-((S)-1-((2S,6R)-4-(4-(3,5-dimethyl-1H-1,2,4-triazol-1-yl)-5-fluoropyrimidin-2-yl)-2,6-dimethylpiperazine-1-carbonyl)-4,5-dihydro-1H-pyrazol-5-yl)-5-fluorobenzonitrile], the negative logarithm of the EC50 (pEC50) was 5.00 to 6.00.

A word on the pEC50: it is the negative decadic logarithm of the EC50, by convention in mol/L.
